Measured values reported in ChEMBL document CHEMBL1201862, “PubChem BioAssay data set” (2004).
Active and inactive are the calls of the source.

Legend:
[1] = target: T1, Endoribonuclease toxin MazF (Escherichia coli K-12, UniProt P0AE70); assay: MazF toxin RNase activators, dose response, biochemical, fluorescence, single-stranded RNA substrate, uHTS hits (AID 588481); format: functional
T1 sequence (P0AE70 whole entry): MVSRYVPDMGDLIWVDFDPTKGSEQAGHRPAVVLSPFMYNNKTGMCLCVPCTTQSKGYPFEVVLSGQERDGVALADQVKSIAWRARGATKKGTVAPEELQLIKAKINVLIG

[2] = target: T1, Endoribonuclease toxin MazF; assay: fluorescent RNA oligo signal without MazF, dose response, counter-screen for MazEF activator project, biochemical, fluorescence, single-stranded RNase substrate (AID 588502); format: functional
Large T antigen = Large T antigen (Simian virus 40, UniProt P03070); format: functional, Betapolyomavirus macacae;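 further: Confirmatory-stage PubChem screen for compounds that inhibit SV40 T antigen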
Chain of Large T antigen (P03070 whole entry): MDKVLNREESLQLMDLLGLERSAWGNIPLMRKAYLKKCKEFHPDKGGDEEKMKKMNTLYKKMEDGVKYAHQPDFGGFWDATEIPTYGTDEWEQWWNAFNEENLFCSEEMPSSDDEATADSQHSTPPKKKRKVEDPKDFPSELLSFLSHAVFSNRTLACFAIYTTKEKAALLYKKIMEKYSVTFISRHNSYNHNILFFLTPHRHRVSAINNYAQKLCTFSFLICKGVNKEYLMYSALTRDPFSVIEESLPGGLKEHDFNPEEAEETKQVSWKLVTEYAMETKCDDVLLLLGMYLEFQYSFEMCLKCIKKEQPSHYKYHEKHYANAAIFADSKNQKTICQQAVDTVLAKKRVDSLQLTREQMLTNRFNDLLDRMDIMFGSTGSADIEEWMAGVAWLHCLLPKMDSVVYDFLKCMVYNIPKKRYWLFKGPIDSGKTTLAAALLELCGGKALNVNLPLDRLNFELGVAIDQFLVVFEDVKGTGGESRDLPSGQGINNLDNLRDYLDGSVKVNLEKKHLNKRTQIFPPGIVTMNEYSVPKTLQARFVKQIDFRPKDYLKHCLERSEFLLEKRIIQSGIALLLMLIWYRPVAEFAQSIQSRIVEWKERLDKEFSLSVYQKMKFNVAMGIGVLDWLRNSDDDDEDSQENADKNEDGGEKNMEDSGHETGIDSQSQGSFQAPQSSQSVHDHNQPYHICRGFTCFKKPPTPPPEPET

[3] = target: T2, Sentrin-specific protease 1 (Homo sapiens, UniProt Q9P0U3); assay: potency of human SENP1 inhibitors, dose response, biochemical, kinetic FRET (AID 651697); format: functional; conditions: read-out: IC50_Mean
T2 sequence (Q9P0U3 whole entry): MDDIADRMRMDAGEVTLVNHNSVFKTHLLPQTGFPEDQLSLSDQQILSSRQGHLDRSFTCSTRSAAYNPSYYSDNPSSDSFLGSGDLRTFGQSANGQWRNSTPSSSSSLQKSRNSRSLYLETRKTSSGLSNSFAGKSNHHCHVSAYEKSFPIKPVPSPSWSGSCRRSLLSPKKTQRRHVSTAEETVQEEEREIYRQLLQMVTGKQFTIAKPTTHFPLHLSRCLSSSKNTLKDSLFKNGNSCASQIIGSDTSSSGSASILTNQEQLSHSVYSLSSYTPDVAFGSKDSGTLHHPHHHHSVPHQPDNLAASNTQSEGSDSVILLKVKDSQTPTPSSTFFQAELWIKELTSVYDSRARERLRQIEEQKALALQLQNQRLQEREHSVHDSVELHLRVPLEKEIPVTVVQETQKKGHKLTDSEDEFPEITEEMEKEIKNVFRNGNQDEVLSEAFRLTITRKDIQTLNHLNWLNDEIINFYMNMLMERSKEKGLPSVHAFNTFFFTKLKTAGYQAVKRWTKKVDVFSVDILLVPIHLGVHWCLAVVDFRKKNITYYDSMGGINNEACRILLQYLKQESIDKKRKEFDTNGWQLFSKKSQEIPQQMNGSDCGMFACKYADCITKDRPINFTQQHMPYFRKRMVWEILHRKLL

[4] = target: T2, Sentrin-specific protease 1; assay: Dose response confirmation of small molecule inhibitors of the catalytic domain of the SUMO protease, SENP1 in a FRET assay.; format: functional; conditions: read-out: IC50_Mean
[5] = target: T3, Mitochondrial peptide methionine sulfoxide reductase (Bos taurus, UniProt P54149); format: functional;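 further: absorbance read-out, biochemical high-throughput dose-response screen for MsrA inhibitors, confirmatory; recombinant bovine MsrA coupled to E. coli TrxB with NADPH and selenocystamine; potency is for inhibitors of MsrA activity on DMSO substrate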
T3 sequence (P54149 whole entry): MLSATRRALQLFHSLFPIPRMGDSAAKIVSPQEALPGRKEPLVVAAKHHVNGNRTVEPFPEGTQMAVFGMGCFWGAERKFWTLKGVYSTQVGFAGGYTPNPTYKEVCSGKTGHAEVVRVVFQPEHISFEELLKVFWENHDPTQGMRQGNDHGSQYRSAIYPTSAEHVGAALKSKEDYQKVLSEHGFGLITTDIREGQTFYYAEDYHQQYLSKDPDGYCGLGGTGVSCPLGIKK

Beta-galactosidase = Beta-galactosidase (Escherichia coli, UniProt Q8VNN2); assay: PubChem AID 485352; format: functional
Chain of Beta-galactosidase (Q8VNN2 whole entry): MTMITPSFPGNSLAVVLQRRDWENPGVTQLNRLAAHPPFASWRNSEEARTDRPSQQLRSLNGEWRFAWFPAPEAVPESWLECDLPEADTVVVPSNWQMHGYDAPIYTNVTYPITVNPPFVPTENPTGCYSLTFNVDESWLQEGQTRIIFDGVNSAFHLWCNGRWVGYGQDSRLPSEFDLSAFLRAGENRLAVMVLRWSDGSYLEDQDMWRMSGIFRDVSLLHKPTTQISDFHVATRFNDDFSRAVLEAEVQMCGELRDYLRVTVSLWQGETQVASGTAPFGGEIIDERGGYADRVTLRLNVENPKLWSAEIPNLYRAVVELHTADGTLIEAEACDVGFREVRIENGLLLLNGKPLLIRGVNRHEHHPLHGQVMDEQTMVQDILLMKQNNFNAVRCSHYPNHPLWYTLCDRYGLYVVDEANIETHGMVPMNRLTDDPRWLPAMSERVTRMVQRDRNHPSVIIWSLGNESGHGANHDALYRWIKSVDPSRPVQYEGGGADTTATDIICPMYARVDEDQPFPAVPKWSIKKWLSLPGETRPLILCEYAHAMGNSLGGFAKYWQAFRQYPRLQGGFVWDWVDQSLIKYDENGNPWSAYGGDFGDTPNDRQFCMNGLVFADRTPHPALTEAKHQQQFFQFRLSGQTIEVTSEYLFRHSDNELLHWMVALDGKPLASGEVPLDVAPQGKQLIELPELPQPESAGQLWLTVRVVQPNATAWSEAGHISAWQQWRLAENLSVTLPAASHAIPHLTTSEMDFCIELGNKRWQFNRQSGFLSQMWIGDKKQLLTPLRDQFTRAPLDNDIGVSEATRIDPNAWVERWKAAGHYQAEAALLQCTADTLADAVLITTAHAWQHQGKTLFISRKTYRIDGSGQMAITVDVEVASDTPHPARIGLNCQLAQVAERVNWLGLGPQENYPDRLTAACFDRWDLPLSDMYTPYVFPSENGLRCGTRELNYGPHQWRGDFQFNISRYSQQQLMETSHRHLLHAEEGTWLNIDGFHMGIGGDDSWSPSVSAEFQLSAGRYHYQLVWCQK

[6] = target: T4, Type-1 angiotensin II receptor (Homo sapiens, UniProt P30556); assay: AT1 receptor antagonists, dose response, selectivity assay for APJ receptor antagonist project, cell-based, uHTS hits (AID 463214); format: functional;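 further: antagonist potency against angiotensin II stimulated AT1 response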
T4 sequence (P30556 whole entry): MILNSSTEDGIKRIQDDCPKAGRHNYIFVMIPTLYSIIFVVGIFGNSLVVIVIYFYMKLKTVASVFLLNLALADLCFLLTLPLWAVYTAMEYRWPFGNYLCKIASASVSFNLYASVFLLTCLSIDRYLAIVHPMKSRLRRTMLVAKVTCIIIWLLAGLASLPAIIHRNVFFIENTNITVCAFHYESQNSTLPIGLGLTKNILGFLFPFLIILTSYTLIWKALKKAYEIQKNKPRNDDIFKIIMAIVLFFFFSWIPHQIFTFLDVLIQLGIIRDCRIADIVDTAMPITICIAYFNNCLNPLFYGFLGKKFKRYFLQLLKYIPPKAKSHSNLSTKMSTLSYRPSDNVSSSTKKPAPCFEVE

Coagulation factor XII = target: T5, Coagulation factor XII (Homo sapiens, UniProt P00748); format: functional;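 further: activated factor XIIa alpha cleaving a fluorogenic AMC peptide substrate; inhibitor potency from loss of enzyme activity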
T5 sequence (P00748 whole entry): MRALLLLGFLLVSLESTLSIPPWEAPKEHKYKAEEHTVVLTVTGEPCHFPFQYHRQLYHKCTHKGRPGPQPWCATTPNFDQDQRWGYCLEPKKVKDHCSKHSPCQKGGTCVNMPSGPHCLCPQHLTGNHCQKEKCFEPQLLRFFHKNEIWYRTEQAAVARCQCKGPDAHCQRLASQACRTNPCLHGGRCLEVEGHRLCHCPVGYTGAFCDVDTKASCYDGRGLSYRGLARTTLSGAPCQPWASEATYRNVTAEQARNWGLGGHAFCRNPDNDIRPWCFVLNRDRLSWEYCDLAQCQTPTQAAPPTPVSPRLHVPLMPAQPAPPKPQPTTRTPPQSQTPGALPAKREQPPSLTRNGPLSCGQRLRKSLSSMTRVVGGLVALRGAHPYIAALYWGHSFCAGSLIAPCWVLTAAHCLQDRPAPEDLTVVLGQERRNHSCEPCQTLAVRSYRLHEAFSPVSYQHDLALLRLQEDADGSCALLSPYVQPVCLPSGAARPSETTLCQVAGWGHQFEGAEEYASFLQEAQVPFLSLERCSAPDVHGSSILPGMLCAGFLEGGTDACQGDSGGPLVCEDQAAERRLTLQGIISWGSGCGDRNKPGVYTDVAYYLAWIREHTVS

[7] = target: Glucose-6-phosphate 1-dehydrogenase (Homo sapiens, UniProt P11413); assay: human G6PD enzyme inhibitors, dose response, selectivity assay for P. falciparum G6PD inhibitor project, biochemical, fluorescence (AID 504792); format: functional
Chain of Glucose-6-phosphate 1-dehydrogenase (P11413 whole entry): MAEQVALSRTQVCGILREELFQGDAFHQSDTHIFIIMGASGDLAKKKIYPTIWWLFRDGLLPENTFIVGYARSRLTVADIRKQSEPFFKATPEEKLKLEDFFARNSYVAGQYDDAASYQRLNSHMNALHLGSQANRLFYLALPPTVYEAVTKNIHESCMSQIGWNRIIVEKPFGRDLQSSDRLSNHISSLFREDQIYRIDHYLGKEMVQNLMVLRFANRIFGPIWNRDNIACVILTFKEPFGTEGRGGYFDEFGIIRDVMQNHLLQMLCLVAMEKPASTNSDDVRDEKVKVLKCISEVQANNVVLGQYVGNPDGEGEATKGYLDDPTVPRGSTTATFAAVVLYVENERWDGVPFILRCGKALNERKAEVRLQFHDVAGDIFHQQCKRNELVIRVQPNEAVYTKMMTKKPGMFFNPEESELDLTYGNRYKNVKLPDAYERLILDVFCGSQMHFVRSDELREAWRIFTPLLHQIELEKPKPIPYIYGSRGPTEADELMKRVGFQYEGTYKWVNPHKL

[8] = inhibitors of SNCA 5'UTR-driven reporter translation, confirmation, H4 neuroglioma cells, luminescence (AID 1988); format: functional, cell-based
Melanocortin receptor 4 = Melanocortin receptor 4 (Homo sapiens, UniProt P32245); assay: MC4R antagonist potency on cAMP, dose response, cell-based, TR-FRET, biased antagonists (AID 602298); format: functional;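 further: antagonist potency against agonist-stimulated cAMP production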
Chain of Melanocortin receptor 4 (P32245 whole entry): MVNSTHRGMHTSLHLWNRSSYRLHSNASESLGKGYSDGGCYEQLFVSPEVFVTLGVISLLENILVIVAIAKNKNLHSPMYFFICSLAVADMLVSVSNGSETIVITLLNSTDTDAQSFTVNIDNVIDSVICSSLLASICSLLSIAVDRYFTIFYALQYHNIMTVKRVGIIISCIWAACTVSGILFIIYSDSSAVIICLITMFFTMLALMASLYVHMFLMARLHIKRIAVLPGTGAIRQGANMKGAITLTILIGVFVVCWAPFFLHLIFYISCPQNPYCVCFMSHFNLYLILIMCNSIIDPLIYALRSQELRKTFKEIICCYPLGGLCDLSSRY

[9] = Luminescence Cell-Based Dose Response HTS to Identify Inhibitors of 5'UTR Stem-Loop Driven Prion Protein mRNA Translation in H4 Neuroglioblastoma Cells. [Related pubchem assays: 1827 (Project Summary), 1813 (Primary HTS)]; format: functional
[10] = nonselective inhibitors of cellular cAMP signaling, dose response, counter-screen for MC4R biased antagonist project, cell-based, TR-FRET cAMP detection (AID 602305); format: functional;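 further: U2OS cells stimulated with forskolin near its EC80 as the cAMP inducer; potency is for inhibition of forskolin-stimulated cAMP signaling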
[11] = inhibitors of firefly luciferase expression or activity, dose response, H4 neuroglioma cells, luminescence (AID 1990); format: functional, cell-based
Paired box protein Pax-8 = Paired box protein Pax-8 (Homo sapiens, UniProt Q06710); assay: inhibitors of PAX8-driven TPO luciferase reporter, dose response, RMG-I cells, cherry-pick (AID 687027); format: functional, cell-based;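 further: luciferase reporter driven by Pax8 target thyroperoxidase promoter measured by SteadyGlo luminescence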
Chain of Paired box protein Pax-8 (Q06710 whole entry): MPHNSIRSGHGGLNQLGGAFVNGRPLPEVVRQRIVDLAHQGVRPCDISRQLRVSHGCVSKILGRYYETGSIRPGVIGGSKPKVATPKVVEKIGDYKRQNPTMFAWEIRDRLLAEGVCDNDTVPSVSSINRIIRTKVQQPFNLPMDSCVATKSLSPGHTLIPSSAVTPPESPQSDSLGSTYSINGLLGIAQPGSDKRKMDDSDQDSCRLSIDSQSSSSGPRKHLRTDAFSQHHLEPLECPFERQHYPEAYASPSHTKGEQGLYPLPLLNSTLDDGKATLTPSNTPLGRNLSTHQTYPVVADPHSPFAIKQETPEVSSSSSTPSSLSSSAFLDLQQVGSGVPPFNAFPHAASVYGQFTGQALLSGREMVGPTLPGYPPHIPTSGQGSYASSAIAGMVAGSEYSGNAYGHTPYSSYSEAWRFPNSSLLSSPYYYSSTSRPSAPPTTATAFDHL

[12] = target: T6, Latent membrane protein 1 (Human herpesvirus 4 (strain B95-8), UniProt P03230); assay: TES1-eGFP NF-kB reporter inhibition versus Tet-On dsRED, dose response, selectivity assay for LMP1 NF-kB inhibitor project, imaging, HEK293T, dual-color eGFP/dsRED, cherry-picks (AID 588398); format: functional, cell-based
T6 sequence (P03230 whole entry): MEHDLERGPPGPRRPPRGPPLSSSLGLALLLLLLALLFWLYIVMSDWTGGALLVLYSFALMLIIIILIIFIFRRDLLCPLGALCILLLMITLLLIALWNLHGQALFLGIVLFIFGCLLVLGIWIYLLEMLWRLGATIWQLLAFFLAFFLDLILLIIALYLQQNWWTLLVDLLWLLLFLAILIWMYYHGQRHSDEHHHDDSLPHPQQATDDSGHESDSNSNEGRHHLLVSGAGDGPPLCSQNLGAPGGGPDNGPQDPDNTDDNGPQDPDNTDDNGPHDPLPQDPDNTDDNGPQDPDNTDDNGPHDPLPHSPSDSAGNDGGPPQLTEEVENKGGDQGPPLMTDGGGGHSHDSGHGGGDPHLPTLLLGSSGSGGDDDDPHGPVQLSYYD

HEK293 = assay: inhibitors of LMP1-driven NF-kB reporter, dose response, cell-based, HEK293, luciferase, cherry-pick (AID 588343); format: functional; conditions: Homo sapiens
[13] = target: Adenosylmethionine-8-amino-7-oxononanoate aminotransferase (Mycobacterium tuberculosis, UniProt P9WQ81); assay: Mycobacterium tuberculosis BioA enzyme inhibitor Measured in Biochemical System Using Plate Reader - 2163-02_Inhibitor_Dose_CherryPick_Activity.; format: functional, Mycobacterium tuberculosis UT205
Chain of Adenosylmethionine-8-amino-7-oxononanoate aminotransferase (P9WQ81 whole entry): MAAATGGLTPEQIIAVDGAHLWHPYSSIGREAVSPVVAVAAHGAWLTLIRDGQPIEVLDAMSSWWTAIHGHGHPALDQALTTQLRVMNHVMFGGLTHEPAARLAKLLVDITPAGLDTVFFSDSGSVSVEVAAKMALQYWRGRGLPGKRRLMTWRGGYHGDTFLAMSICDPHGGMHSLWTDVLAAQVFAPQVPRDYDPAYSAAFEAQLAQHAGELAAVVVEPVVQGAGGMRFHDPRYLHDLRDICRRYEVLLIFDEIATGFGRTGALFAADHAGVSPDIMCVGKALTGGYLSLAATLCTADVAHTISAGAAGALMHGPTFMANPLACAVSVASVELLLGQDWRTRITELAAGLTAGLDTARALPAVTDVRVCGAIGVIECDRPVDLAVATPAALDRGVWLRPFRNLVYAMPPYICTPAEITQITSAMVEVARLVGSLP

Protein Wnt-3a = Protein Wnt-3a (Mus musculus, UniProt P27467); assay: Wnt3a-driven reporter signaling inhibition, dose response, selectivity assay for Gli-SUFU antagonist project, Wnt-LIGHT cells, luminescence (AID 651570); format: functional; conditions: read-out: IC50_Mean;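 further: Wnt-LIGHT reporter cells stimulated with conditioned medium from Wnt3a-producing cells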
Chain of Protein Wnt-3a (P27467 whole entry): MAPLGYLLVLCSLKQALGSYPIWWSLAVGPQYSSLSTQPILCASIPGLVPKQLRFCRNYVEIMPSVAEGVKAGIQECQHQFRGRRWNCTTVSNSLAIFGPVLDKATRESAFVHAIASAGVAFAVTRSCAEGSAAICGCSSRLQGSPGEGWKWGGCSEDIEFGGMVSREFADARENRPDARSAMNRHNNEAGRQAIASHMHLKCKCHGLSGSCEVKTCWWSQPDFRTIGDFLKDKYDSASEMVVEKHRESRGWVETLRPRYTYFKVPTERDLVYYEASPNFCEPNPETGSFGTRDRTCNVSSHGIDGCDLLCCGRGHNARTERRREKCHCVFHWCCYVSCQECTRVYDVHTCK

HeLa = assay: HeLa cell cytotoxicity, dose response, cytotoxicity control for MITF activator project, CellTiter-Glo luminescence, cherry-pick samples (AID 540259); format: functional, cell-based; conditions: Homo sapiens

Compound: CC(C)(C)OC(=O)N/N=C/c1ccc(N2CCOCC2)s1
- EC50 [1]: > 99 µM (inactive)
- EC50 [2]: 46.9 µM (inactive)
- IC50 (Large T antigen): 13.2 µM (active)
- IC50 [3]: 8.28 µM (active)
- IC50 [4]: 11.9 µM (active)

Compound: Cc1ccc(C2=N/C(=C/N3CCOCC3)C(=O)O2)cc1
- IC50 [5]: 142 µM (inactive)

Compound: COc1ccc(-c2cc(-c3ccccc3)nc(NN)n2)cc1OC
- EC50 (Beta-galactosidase): > 40 µM (inactive)
- IC50 [6]: 11.2 µM (active)

Compound: COc1ccc(C(=O)ON=C2C=C(C)C(=O)C(C)=C2)cc1
- IC50 (Coagulation factor XII): 0.574 µM (active)
- IC50 [7]: > 80 µM (inactive)

Compound: Cc1ccc(C)c(NC(=O)COC(=O)c2cccc3c2C(=O)c2ccccc2C3=O)c1
- EC50 [8]: > 120 µM (not active)
- IC50 (Melanocortin receptor 4): > 64.6 µM (inactive)
- EC50 [9]: > 60 µM (not active)
- IC50 [10]: > 64.6 µM (inactive)
- EC50 [11]: > 120 µM (not active)

Compound: CCN(CC)c1ccc(C(NC(=O)C(C)C)c2ccc3cccnc3c2O)cc1 (centres undefined)
- AC50 (Paired box protein Pax-8): 1.09 µM (active)
- AC50 [12]: 3.72 µM (active)
- AC50 (HEK293): 7.26 µM (active)

Compound: COc1ccc(NC(=O)c2ccc(-n3cncn3)c([N+](=O)[O-])c2)cc1OC
- AC50 [13]: 2.2 µM (active)

Compound: O=C(C[C@@H]1C/C=C\C[C@H](NC(=O)OCC2c3ccccc3-c3ccccc32)C(=O)OC[C@H]2CCCN2C1=O)N[C@H](CO)Cc1ccccc1
- IC50 (Protein Wnt-3a): 8.46 µM (active)

Compound: Cc1ccc(NC(=O)Nc2ccc3c(c2)N(C)C(=O)CS3)nc1
- AC50 (HeLa): > 350 µM (inactive)

Compound: Nn1c(SCc2nc3ccccc3[nH]2)nnc1-c1cccnc1
- AC50 [13]: 5.06 µM (active)

Compound: COC(=O)c1c(NC(=O)C2COc3ccccc3O2)sc2c1CCN(C(=O)OC)C2 (centres undefined)
- IC50 (Melanocortin receptor 4): > 64.6 µM (inactive)
- IC50 [10]: > 64.6 µM (inactive)
